Laboratory results as given in patent publication US20110262359A1, “COMPOSITIONS COMPRISING ENZYME-CLEAVABLE PRODRUGS OF ACTIVE AGENTS AND INHIBITORS THEREOF” (priority 2010, published 2011).
Where two headings read alike, the source gives them in different places.

Assays:
[1] = Oral administration of Compound KC-3 and trypsin inhibitor Compound 109 to rats; format: in vivo; conditions: rat PO; KC-3 50 mg/kg with Compound 109 10 to 40 mg/kg
[2] = Oral administration of Compound PC-6 co-dosed with trypsin inhibitor Compound 109 to rats; format: in vivo; conditions: rat PO; PC-6 6 mg/kg with Compound 109 0.01 to 30 mg/kg
[3] = Oral administration of Compound PC-5 co-dosed with trypsin inhibitor Compound 109 to rats; format: in vivo; conditions: rat PO; PC-5 6 mg/kg with Compound 109 0.1 to 10 mg/kg
[4] = Oral administration of Compound KC-2 and trypsin inhibitor Compound 109 to rats; format: in vivo; conditions: rat PO; KC-2 6 mg/kg with Compound 109 30 mg/kg
[5] = Oral administration of Compound KC-4 and trypsin inhibitor Compound 109 to rats; format: in vivo; conditions: rat PO; KC-4 6 mg/kg with Compound 109 30 mg/kg
[6] = Oral administration of Compound KC-2 co-dosed with increasing Compound 109 to rats; format: in vivo; conditions: rat PO; KC-2 50 mg/kg with Compound 109 10 to 40 mg/kg
[7] = male, Sprague Dawley, rat, in vivo
[8] = In vitro stability of Compound KC-2 to household chemicals and enzyme preparations; format: physicochemical; conditions: vodka, baking soda, WINDEX, vinegar at RT or 80° C.; GNC Super Digestive, tenderizer, subtilisn at RT; 1 or 24 hr
Procedure: (§1) Samples were incubated as described and aliquots removed at 1 hr and 24 hr and stabilized by adding each to a solution of 50% or 100% of 85% phosphoric acid solution to achieve a final pH of less than or equal to pH 4. The stabilized aliquots were then diluted 4- to 6-fold with water, vortex-mixed and applied to HPLC.

[9] = Pharmacokinetics of oxycodone prodrug Compound KC-2 or oxycodone following PO administration to rats; format: in vivo; conditions: rat PO; Compound KC-2 20 mg/kg vs oxycodone 10 mg/kg
[10] = target: T1, trypsin from bovine pancreas (Bos taurus, UniProt P00760); assay: Effect of trypsin inhibition on in vitro trypsin-mediated release of oxycodone from Compound KC-2; format: biochemical; design: trypsin from bovine pancreas; purchased Sigma-Aldrich T8003; host or cells: bovine pancreas (tissue-derived); conditions: no trypsin inhibitor; 0.761 mM Compound KC-2, 0.0228 mg/mL trypsin, 37° C.
T1 sequence (P00760 24-246): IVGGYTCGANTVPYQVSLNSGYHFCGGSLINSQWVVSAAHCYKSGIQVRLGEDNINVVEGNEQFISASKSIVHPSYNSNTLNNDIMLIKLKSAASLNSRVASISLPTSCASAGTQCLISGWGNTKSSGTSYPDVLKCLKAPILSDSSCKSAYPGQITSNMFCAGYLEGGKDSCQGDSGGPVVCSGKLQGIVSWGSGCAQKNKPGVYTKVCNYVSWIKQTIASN

[11] = In vivo tolerability of Compound KC-3 in rats (IV); conditions: rat IV
Procedure: Male naïve Sprague-Dawley rats, 4 per dose, were used in the study. Rats were weighed, and then placed under a heat lamp for 15-20 minutes to dilate the lateral tail veins. […] Before dosing, rats were placed in Broome restrainers and the drug was introduced into one of the tail veins using a syringe and needle. […] Blood samples were collected 5 minutes post-dose via the saphenous vein. The rats were observed up to 24 hours.

[12] = target: T1, trypsin from bovine pancreas; assay: In vitro trypsin conversion of ketone-modified opioid prodrugs to oxycodone or hydrocodone and inhibition by Compound 109; format: biochemical; design: trypsin from bovine pancreas; purchased Sigma-Aldrich T8003; host or cells: bovine pancreas (tissue-derived); conditions: 0.761 mM prodrug, no inhibitor, 37° C.
[13] = In vitro stability of Compound KC-3 to household chemicals and enzyme preparations; format: physicochemical; conditions: vodka, baking soda, WINDEX, vinegar at RT or 80° C.; GNC Super Digestive, tenderizer, subtilisn at RT; 1 or 24 hr
Procedure: as §1, with “described. Aliquots were” for “described and aliquots”

[14] = male, Sprague Dawley, rat, in vivo; remark: listed apart in the source
[15] = Pharmacokinetics of Compound KC-5 following PO administration to rats; format: in vivo; conditions: rat PO
[16] = Pharmacokinetics of Compound KC-6 following PO administration to rats; format: in vivo; conditions: rat PO
[17] = male, Sprague Dawley, rat, in vivo; remark: listed apart in the source
[18] = target: T1, trypsin from bovine pancreas; assay: In vitro trypsin conversion of prodrugs to hydromorphone and inhibition by trypsin inhibitor
[19] = Oral administration of Compound PC-4 and SBTI trypsin inhibitor to rats; format: in vivo; conditions: for Cmax of HM in rat plasma / Tmax of HM in rat plasma: PC-4 20 mg/kg
[20] = Oral administration of Compound PC-4 and Compound 101 trypsin inhibitor to rats; format: in vivo; conditions: PC-4 20 mg/kg, Compound 101 10 mg/kg
[21] = Oral administration of Compound PC-3 and SBTI trypsin inhibitor to rats; format: in vivo; conditions: rat PO; PC-3 20 mg/kg with SBTI 500 mg/kg
[22] = target: T2, trypsin (Bos taurus, UniProt P00760); assay: In vitro IC50 of trypsin inhibitors, modified trypsin assay; format: biochemical; conditions: trypsin inhibition
T2 sequence (P00760 24-246): T1 sequence (P00760 24-246)

[23] = Oral administration of Compound PC-2 and SBTI trypsin inhibitor to rats; format: in vivo; conditions: rat PO; PC-2 20 mg/kg with SBTI 500 mg/kg
[24] = Oral administration of Compound PC-1 and SBTI trypsin inhibitor to rats (hydromorphone in blood); conditions: rat PO; PC-1 20 mg/kg with SBTI 10 to 1000 mg/kg
[25] = male, Sprague Dawley, rat, in vivo

Molecule: N=C(N)c1ccc2cc(OC(=O)c3ccc(N=C(N)N)cc3)ccc2c1 [Compound 109, 6-carbamimidoylnaphthalen-2-yl 4-(diaminomethyleneamino)benzoate]
- effect of Compound 109 on release of oxycodone from Compound KC-3 [1]: attenuates Compound KC-3's ability to release oxycodone, both by suppressing Cmax and AUC and by delaying Tmax
- effect of Compound 109 on release of hydromorphone from Compound PC-6 [2]: ability to attenuate Compound PC-6's ability to release hydromorphone in a dose dependent manner
- effect of Compound 109 on release of hydromorphone from Compound PC-5 [3]: ability to attenuate Compound PC-5's ability to release hydromorphone in a dose dependent manner
- effect of Compound 109 on release of oxycodone from Compound KC-2 [4]: attenuates Compound KC-2's ability to release oxycodone, both by suppressing Cmax and by delaying Tmax
- effect of Compound 109 on release of hydrocodone from Compound KC-4 [5]: attenuates Compound KC-4's ability to release hydrocodone, both by suppressing Cmax and AUC and by delaying Tmax
- effect of Compound 109 on release of oxycodone from Compound KC-2 [6]: ability to attenuate Compound KC-2's ability to release oxycodone in a dose dependent manner

Molecule: COc1ccc2c3c1O[C@H]1C(OC(=O)N(C)CCNC(=O)[C@H](CCCNC(=N)N)NC(C)=O)=CC[C@@]4(O)[C@@H](C2)N(C)CC[C@]314 [Compound KC-2, Oxycodone 6-(N-methyl-N-(2-N′-acetylarginylamino)) ethylcarbamate]
- Plasma/CSF partitioning coefficient [7]: 439
- conversion of Compound KC-2 to oxycodone on exposure to household chemicals and enzyme preparations [8]: less than 10%
- oxycodone plasma profile compared to administration of oxycodone [9]: yields oxycodone plasma concentrations that exhibit a suppressed Cmax and delayed Tmax compared to administration of oxycodone
- Rate of oxycodone formation, umols/h/umol trypsin Average ± sd [10]: 37.4 ± 0.9 umols/h/umol trypsin

Molecule: COc1ccc2c3c1O[C@H]1C(OC(=O)N(C)CCNC(=O)[C@H](CCCNC(=N)N)NC(=O)CC(=O)O)=CC[C@@]4(O)[C@@H](C2)N(C)CC[C@]314 [Compound KC-3, N-{(S)-4-guanidino-1-[2-(methyl-[(5R,9R,13S,14S)-4,5a-epoxy-6,7-didehydro-14-hydroxy-3-methoxy-17-methylmorphinan-6-oxy]carbonyl-amino)-ethylcarbamoyl]-butyl}-malonamic acid]
- dose tolerated by rats [11]: 97 µmol/kg
- time to recover to normal activity ([11]; KC-3 97 μmol/kg): ≤ 2 min
- Rate of oxycodone formation, umol/h/BAEE U Average ± sd ([12]; 241 BAEE U trypsin/mL): 0.0684 ± 0.0009 umol/h/BAEE U
- conversion of Compound KC-3 to oxycodone on exposure to household chemicals and enzyme preparations [13]: less than 10%
- Compound conc. in CSF [14]: 34.1 ng/mL
- Compound conc. in Plasma, ng/mL [14]: 59,225 ng/mL
- Plasma/CSF partitioning coefficient [14]: 1,737

Molecule: COc1ccc2c3c1O[C@H]1C(OC(=O)N(CCCCCC(=O)O)CCNC(=O)[C@H](CCCNC(=N)N)NC(C)=O)=CC[C@@]4(O)[C@@H](C2)N(C)CC[C@]314 [Compound KC-5, 6-{[2-(2-Acetylamino-5-guanidino-pentanoylamino)-ethyl]-[(5R, 9R,13S,14S)-4,5a-epoxy-6,7-didehydro-14-hydroxy-3-methoxy-17-methylmorphinan-6-oxy]-1-enyloxycarbonyl-amino}-hexanoic acid]
- Rate of oxycodone formation, umol/h/BAEE U Average ± sd ([12]; 241 BAEE U trypsin/mL): 0.135 ± 0.005 umol/h/BAEE U
- oxycodone plasma profile compared to administration of oxycodone [15]: yields oxycodone plasma concentrations that exhibit a suppressed Cmax and AUC and delayed Tmax compared to administration of oxycodone
- expected fold less effective at CNS mu-opioid receptors than oxycodone (administered intravenously in equimolar amounts, 316×50): about 15,800 fold
- Compound conc. in CSF [25]: 36.4 ng/mL
- Compound conc. in Plasma [25]: 54,900 ng/mL
- Plasma/CSF partitioning coefficient [25]: 1,508
- relative plasma/CSF partitioning coefficient of prodrug to oxycodone (fold less CSF penetrant than oxycodone) (rat IV, 1,508/4.8): about 316 fold

Molecule: COc1ccc2c3c1O[C@H]1C(OC(=O)N(C)C[C@H](NC(=O)[C@H](CCCNC(=N)N)NC(C)=O)C(=O)N(C)CC(=O)O)=CC[C@@]4(O)[C@@H](C2)N(C)CC[C@]314 [Compound KC-6, ({(S)-2-((S)-2-Acetylamino-5-guanidino-pentanoylamino)-3-[(oxycodone-enyloxycarbonyl)-methyl-amino]-propionyl}-methyl-amino)-acetic acid]
- Rate of oxycodone formation, umol/h/BAEE U Average ± sd ([12]; 241 BAEE U trypsin/mL): 0.0118 ± 0.0042 umol/h/BAEE U
- Rate of oxycodone formation, umol/h/BAEE U Average ± sd ([12]; 4815 BAEE U trypsin/mL): 0.00571 ± 0.0002 umol/h/BAEE U
- oxycodone plasma profile compared to administration of oxycodone [16]: yields oxycodone plasma concentrations that exhibit a suppressed Cmax and AUC and delayed Tmax compared to administration of oxycodone
- Plasma/CSF partitioning coefficient [17]: 815

Molecule: CCN(CCNC(=O)[C@H](CCCNC(=N)N)NC(C)=O)C(=O)Oc1ccc2c3c1OC1C(=O)CCC4C(C2)N(C)CCC314 (stereo partly drawn) [Compound PC-4]
- Rate of HM formation, umols/h/umol trypsin ([18]; no trypsin inhibitor, (n = 1)): 322 umols/h/umol trypsin
- Rate of HM formation, umols/h/umol trypsin Average ± sd ([18]; with trypsin inhibitor 3,089 uM Compound 109): 3.27 ± 1.87 umols/h/umol trypsin
- Cmax of HM in rat plasma ([19]; SBTI 500 mg/kg): 7.5 ± 2.1 ng/mL
- Tmax of HM in rat plasma ([19]; SBTI 500 mg/kg): 6.5 h
- Cmax of HM in rat plasma ([19]; no inhibitor, 7 rats): 7.7 ± 2.3 ng/mL
- Tmax of HM in rat plasma ([19]; no inhibitor, 7 rats): 2.3 h
- Cmax of HM in rat plasma [20]: 4.8 ± 1.4 ng/mL
- Tmax of HM in rat plasma [20]: 6.0 h

B1: SBTI: trypsin inhibitor from Glycine max (soybean) (Catalog No. 93620, ˜10,000 units per mg, Sigma-Aldrich) (protein, UniProt P01070 25-205, looked up)
Trypsin inhibitor A: DFVLDNEGNPLENGGTYYILSDITAFGGIRAAPTGNERCPLTVVQSRNELDKGIGTIISSPYRIRFIAEGHPLSLKFDSFAVIMLCVGIPTEWSVVEDLPEGPAVKIGENKDAMDGWFRLERVSDDEFNNYKLVFCPQQAEDDKCGDIGISIDHDDGTRRLVVSKNKPLVVQFQKLDKESL
- effect of SBTI on release of hydromorphone from Compound PC-4 ([19]; rat PO, PC-4 20 mg/kg with SBTI 500 mg/kg): attenuates Compound PC-4's ability to release hydromorphone, at least with respect to delaying Tmax
- effect of SBTI on release of hydromorphone from Compound PC-3 [21]: attenuates Compound PC-3's ability to release hydromorphone, both with respect to suppressing Cmax and delaying Tmax
- IC50 ([22]; Table 7): 270 nM
- IC50 ([22]; Table 20): 270 nM
- effect of SBTI on release of hydromorphone from Compound PC-2 [23]: attenuates Compound PC-2's ability to release hydromorphone, both with respect to suppressing Cmax and delaying Tmax
- effect of SBTI on release of hydromorphone from Compound PC-1 [24]: attenuates Compound PC-1's ability to release hydromorphone in a dose-dependent manner
